Assay results as given in US20240285551A1, “A SMALL MOLECULE TNF-a INHIBITOR AND PREPARATION METHOD AND USE THEREOF” (FUDAN UNIVERSITY, priority 2021, published 2024).

Columns and labels:
TNF-α [1] = assay: release of the inflammatory factor TNF-α by LPS induced macrophages (RAW264.7), RT-PCR; type: cell-based; settings: Mus musculus, RAW264.7, LPS 1 μg/ml, 24 hours, read-out: IC50 with respect to the release of the inflammatory factor TNF-α
Description: LPS (1 μg/ml) and different concentrations of (±)-STU104 or (R)-STU104 (0.1 to 50 μM) were added respectively after the cells grew to a fused state, and incubated together at 37° C. under 5% CO2 for 24 hours. A blank control group was established, and RT-PCR was employed to detect the inhibition states of TNF-α in cells by these compounds.

[2] = test system: Mnk1, MK2, and elF4E in the p38 signaling pathway; assay: western blotting of phosphorylation of p38 signaling pathway proteins in LPS induced RAW264.7 cells; type: cell-based; settings: RAW264.7, 3.125, 6.25 and 12.5 μM, LPS 500 μg/L
Text: (§1) To further clarify the inhibitory mechanism of (R)-STU104 on TNF-α release, we detected the effects of (R)-STU104 on phosphorylation levels of proteins related to the p38 signaling pathway (see FIG. 2). The p38 inhibitor (SB203580) was used as a positive control, and western blotting was used to detect protein expression levels.

TAK1 = assay: western blotting of TAK1 phosphorylation (upstream kinase of MKK3); type: cell-based
Text: as §1

[3] = test system: DSS induced acute ulcerative colitis model in C57 mice; assay: DSS induced acute ulcerative colitis in C57 mice (body weight, DAI, colon length, H&E pathology); type: in vivo; settings: for colon length recovery rate (inhibition of colon shortening) / recovery rate of colon pathological sections (H&E) / DAI score inhibition ratio / body weight recovery rate: gavage once a day; for DAI score inhibition ratio / body weight recovery rate: day 7
Description: (§2) Except for the normal group, all other groups of mice were allowed to freely drink a 3% DSS solution which was freshly prepared and replaced the next day (wherein the 3% DSS solution was prepared by weighing 3 g of a DSS powder (from MP Biomedicals, USA with a molecular weight of 36,000 to 50,000) and fully dissolving it in 100 mL of the drinking water for the mice); whereas the normal group was given blank drinking water; the control group mice drank water normally for 7 days, while the DSS group mice drank the 3% DSS solution freely for 7 days and were administrated for 6 days from the second day DSS was given. The mice were administered by gavage once a day with a volume of 10 mL/kg, wherein the normal control group and DSS group were gavaged with a solvent of 0.5% CMC-Na (wherein a 0.5% CMC-Na solution is at a concentration of 0.5 g/100 mL, the same below), while the other groups were separately gavaged with drugs dissolved in 0.5% CMC-Na.
The normal control group mice were vivacious with glossy fur, stable weight gain, and normal stools appearing elliptical or spindle shaped.
In order to further evaluate the disease development for each group of acute UC mice, we performed DAI scoring on the loose and bloody stools etc. for each mouse (see panel B1 in FIG. 3). […] As the experiment progressed, the disease became gradually worsened, with some animals experiencing severe bloody stools and significant emaciation.
(§3) After dissection, the colon of each mouse was taken and the length of the colon was measured separately.

TNF-α [4] = assay: serum TNF-α protein by ELISA, DSS acute UC mice; type: in vivo; settings: 10 mg/kg
Description: as §2
(§4) To investigate the effects of compounds (R)-STU104, (S)-STU104, and (±)-STU104 on the secretion of such inflammatory factors as TNF-α, IL-1β, IL-6, and IL-23 by mice of the DSS induced acute ulcerative colitis model in C57 mice, we isolated serum after blood acquisition and detected the contents of such inflammatory factors as TNF-α, IL-1β, IL-6, and IL-23 in the serum of mice using ELISA.

IL-1β [5] = assay: serum IL-1β protein by ELISA, DSS acute UC mice; type: in vivo; settings: 10 mg/kg
Description: as §2

IL-6 [6] = assay: serum IL-6 protein by ELISA, DSS acute UC mice; type: in vivo; settings: 10 mg/kg
Description: as §2, §4

IL-23 [7] = assay: serum IL-23 protein by ELISA, DSS acute UC mice; type: in vivo; settings: 10 mg/kg
Description: as §2, §4

TNF-α [8] = assay: colon tissue TNF-α mRNA by qPCR, DSS acute UC mice; type: in vivo; settings: 10 mg/kg
Description: as §2
(§5) After dissection, a segment of the colon was taken from the same part of each mouse, total RNAs were extracted from tissues, and mRNA expressions of such inflammatory factors as TNF-α, IL-1β, IL-6, and IL-23 in colon tissues of the mice were detected through qPCR.

IL-1β [9] = assay: colon tissue IL-1β mRNA by qPCR, DSS acute UC mice; type: in vivo; settings: 10 mg/kg
Description: as §2, §5

IL-6 [10] = assay: colon tissue IL-6 mRNA by qPCR, DSS acute UC mice; type: in vivo; settings: 10 mg/kg
Description: as §2, §5

IL-23 [11] = assay: colon tissue IL-23 mRNA by qPCR, DSS acute UC mice; type: in vivo; settings: 10 mg/kg
Description: as §2, §5

[12] = test system: chronic ulcerative colitis model in IL-10 whole gene knockout mice; assay: chronic ulcerative colitis in IL-10 whole gene knockout mice (survival, body weight, colon length, H&E pathology); type: in vivo
Description: (§6) Ten C57 mice (aged 10-12 weeks, around 20 g) with an identified genotype of Wildtype were taken as the normal control group. […] The mice were administered by gavage once a day with a volume of 10 mL/kg, wherein the normal control group and DSS group were gavaged with a solvent of 0.5% CMC-Na while the other groups were separately gavaged with drugs dissolved in 0.5% CMC-Na.
as §3

TNF-α [13] = assay: serum TNF-α protein by ELISA, IL-10 knockout chronic UC mice; type: in vivo
Description: as §6
(§7) To investigate the effects of (R)-STU104 on the secretion of such inflammatory factors as TNF-α, IL-1β, IL-6, and IL-23 by spontaneous IBD mice due to IL-10 knockout, we isolated serum after blood acquisition and detected the contents of such inflammatory factors as TNF-α, IL-1β, IL-6, and IL-23 in the serum of mice using ELISA.

IL-1β [14] = assay: serum IL-1β protein by ELISA, IL-10 knockout chronic UC mice; type: in vivo
Description: as §6, §7

IL-6 [15] = assay: serum IL-6 protein by ELISA, IL-10 knockout chronic UC mice; type: in vivo
Description: as §6, §7

IL-23 [16] = assay: serum IL-23 protein by ELISA, IL-10 knockout chronic UC mice; type: in vivo
Description: as §6, §7

TNF-α [17] = assay: colon tissue TNF-α mRNA by qPCR, IL-10 knockout chronic UC mice; type: in vivo
Description: as §6, §5

IL-1β [18] = assay: colon tissue IL-1β mRNA by qPCR, IL-10 knockout chronic UC mice; type: in vivo
Description: as §6, §5

IL-6 [19] = assay: colon tissue IL-6 mRNA by qPCR, IL-10 knockout chronic UC mice; type: in vivo
Description: as §6, §5

IL-23 [20] = assay: colon tissue IL-23 mRNA by qPCR, IL-10 knockout chronic UC mice; type: in vivo
Description: as §6, §5

[21] = positive drug group, dose not given

## COc1ccc([C@H]2CC(=O)c3cc(OC)cc(OC)c32)cc1 [(R)-STU104, 4,6-dimethoxy-3R-(4-methoxyphenyl)-2,3-dihydro-1H-indanone]
TNF-α [1]
  IC50: 0.58 µM
[2]
  phosphorylation of key proteins Mnk1, MK2, and elF4E in the p38 signaling pathway: inhibiting, in a concentration dependent manner
TAK1
  phosphorylation of TAK1: no inhibition
[3]; 10 mg/kg
  colon length recovery rate (inhibition of colon shortening): 34.6%
  recovery rate of colon pathological sections (H&E): 65.6%
  DAI score inhibition ratio: 29.3%
  body weight recovery rate: 22.4%
TNF-α [4]
  inhibition ratio of TNF-α protein content in serum: 55.4%
IL-1β [5]
  inhibition ratio of IL-1β protein content in serum: 70.1%
IL-6 [6]
  inhibition ratio of IL-6 protein content in serum: 71.5%
IL-23 [7]
  inhibition ratio of IL-23 protein content in serum: 56.7%
TNF-α [8]
  inhibition ratio of TNF-α mRNA in colon tissues: 64.8%
IL-1β [9]
  inhibition ratio of IL-1β mRNA in colon tissues: 68.3%
IL-6 [10]
  inhibition ratio of IL-6 mRNA in colon tissues: 65.0%
IL-23 [11]
  inhibition ratio of IL-23 mRNA in colon tissues: 84.8%
[12]; high-dose group (10 mg/kg)
  efficiency of weight gain (body weight recovery): 19.4%
  inhibition ratio of colon shortening: 41.2%
  recovery rate of colon pathological sections (H&E): 56.7%
[12]; high-dose group (10 mg/kg), gavage once a day
  total mortality rate: no deaths occurred
[12]; low-dose group (1 mg/kg)
  efficiency of weight gain (body weight recovery): 13.6%
  inhibition ratio of colon shortening: 17.7%
  recovery rate of colon pathological sections (H&E): 33.0%
[12]; low-dose group (1 mg/kg), gavage once a day
  total mortality rate: 20%
[12]; medium-dose group (3 mg/kg)
  efficiency of weight gain (body weight recovery): 14.8%
  inhibition ratio of colon shortening: 29.4%
  recovery rate of colon pathological sections (H&E): 50.5%
[12]; medium-dose group (3 mg/kg), gavage once a day
  total mortality rate: no deaths occurred
TNF-α [13]; high dose (10 mg/kg)
  inhibition ratio of TNF-α protein content in serum: 61.9%
TNF-α [13]; low dose (1 mg/kg)
  inhibition ratio of TNF-α protein content in serum: 40.2%
TNF-α [13]; medium dose (3 mg/kg)
  inhibition ratio of TNF-α protein content in serum: 60.3%
IL-1β [14]; high dose (10 mg/kg)
  inhibition ratio of IL-1β protein content in serum: 51.8%
IL-1β [14]; low dose (1 mg/kg)
  inhibition ratio of IL-1β protein content in serum: 40.1%
IL-1β [14]; medium dose (3 mg/kg)
  inhibition ratio of IL-1β protein content in serum: 50.0%
IL-6 [15]; high dose (10 mg/kg)
  inhibition ratio of IL-6 protein content in serum: 57.6%
IL-6 [15]; low dose (1 mg/kg)
  inhibition ratio of IL-6 protein content in serum: 34.4%
IL-6 [15]; medium dose (3 mg/kg)
  inhibition ratio of IL-6 protein content in serum: 44.5%
IL-23 [16]; high dose (10 mg/kg)
  inhibition ratio of IL-23 protein content in serum: 64.4%
IL-23 [16]; low dose (1 mg/kg)
  inhibition ratio of IL-23 protein content in serum: 39.6%
IL-23 [16]; medium dose (3 mg/kg)
  inhibition ratio of IL-23 protein content in serum: 58.2%
TNF-α [17]; high dose (10 mg/kg)
  inhibition ratio of TNF-α mRNA in colon tissues: 68.5%
TNF-α [17]; low dose (1 mg/kg)
  inhibition ratio of TNF-α mRNA in colon tissues: 24.7%
TNF-α [17]; medium dose (3 mg/kg)
  inhibition ratio of TNF-α mRNA in colon tissues: 69.5%
IL-1β [18]; high dose (10 mg/kg)
  inhibition ratio of IL-1β mRNA in colon tissues: 43.8%
IL-1β [18]; low dose (1 mg/kg)
  inhibition ratio of IL-1β mRNA in colon tissues: 22.8%
IL-1β [18]; medium dose (3 mg/kg)
  inhibition ratio of IL-1β mRNA in colon tissues: 36.1%
IL-6 [19]; high dose (10 mg/kg)
  inhibition ratio of IL-6 mRNA in colon tissues: 48.6%
IL-6 [19]; low dose (1 mg/kg)
  inhibition ratio of IL-6 mRNA in colon tissues: 26.3%
IL-6 [19]; medium dose (3 mg/kg)
  inhibition ratio of IL-6 mRNA in colon tissues: 37.1%
IL-23 [20]; high dose (10 mg/kg)
  inhibition ratio of IL-23 mRNA in colon tissues: 58.2%
IL-23 [20]; low dose (1 mg/kg)
  inhibition ratio of IL-23 mRNA in colon tissues: 31.0%
IL-23 [20]; medium dose (3 mg/kg)
  inhibition ratio of IL-23 mRNA in colon tissues: 51.7%

## COc1ccc([C@@H]2CC(=O)c3cc(OC)cc(OC)c32)cc1 [(S)-STU104]
[3]; 10 mg/kg, compared with mesalazine 50 mg/kg
  improvement of acute UC symptoms: significantly lower than that in the mesalazine group
[3]; 10 mg/kg
  colon length recovery rate (inhibition of colon shortening): 14.5%
  recovery rate of colon pathological sections (H&E): 13.9%
TNF-α [4]
  inhibition ratio of TNF-α protein content in serum: 10.2%
IL-1β [5]
  inhibition ratio of IL-1β protein content in serum: 18.1%
IL-6 [6]
  inhibition ratio of IL-6 protein content in serum: 32.6%
IL-23 [7]
  inhibition ratio of IL-23 protein content in serum: 18.9%
TNF-α [8]
  inhibition ratio of TNF-α mRNA in colon tissues: 22.0%
IL-1β [9]
  inhibition ratio of IL-1β mRNA in colon tissues: 27.7%
IL-6 [10]
  inhibition ratio of IL-6 mRNA in colon tissues: 8.1%
IL-23 [11]
  inhibition ratio of IL-23 mRNA in colon tissues: 10.6%

## Nc1ccc(O)c(C(=O)O)c1 [mesalazine, reference compound]
[3]; 50 mg/kg
  colon length recovery rate (inhibition of colon shortening): 26.4%
  recovery rate of colon pathological sections (H&E): 38.0%
  body weight recovery rate: 7%
[12]; [21]
  recovery rate of colon pathological sections (H&E): 44.3%
  total mortality rate: no deaths occurred

## COc1ccc(C2CC(=O)c3cc(OC)cc(OC)c32)cc1 (racemic) [(±)-STU104]
TNF-α [1]
  IC50: 1.27 µM
[3]; 10 mg/kg
  colon length recovery rate (inhibition of colon shortening): 25.7%
  recovery rate of colon pathological sections (H&E): 48.3%
  DAI score inhibition ratio: 8.3%
  body weight recovery rate: 20.0%
TNF-α [4]
  inhibition ratio of TNF-α protein content in serum: 48.1%
IL-1β [5]
  inhibition ratio of IL-1β protein content in serum: 68.6%
IL-6 [6]
  inhibition ratio of IL-6 protein content in serum: 49.1%
IL-23 [7]
  inhibition ratio of IL-23 protein content in serum: 45.2%
TNF-α [8]
  inhibition ratio of TNF-α mRNA in colon tissues: 55.4%
IL-1β [9]
  inhibition ratio of IL-1β mRNA in colon tissues: 67.5%
IL-6 [10]
  inhibition ratio of IL-6 mRNA in colon tissues: 56.1%
IL-23 [11]
  inhibition ratio of IL-23 mRNA in colon tissues: 73.1%
